Experimental data reported in BigSolDB 2.1.

Cc1[nH]c(=O)c(C#N)cc1-c1ccncc1
solubility (mole fraction)
Settings | 278.15 K | 283.15 K | 288.15 K | 293.15 K | 298.15 K | 303.15 K | 308.15 K | 313.15 K | 318.15 K | 323.15 K
in DMF | 7.95e-05 | 9.2e-05 | 0.000109 | 0.000129 | 0.000149 | 0.000173 | 0.000199 | 0.000225 | 0.000251 | 0.000285
in ethanol | 9.24e-06 | 1.13e-05 | 1.35e-05 | 1.58e-05 | 1.84e-05 | 2.13e-05 | 2.43e-05 | 2.74e-05 | 3.1e-05 | 3.5e-05
in ethylene glycol | 1.72e-05 | 2.09e-05 | 2.46e-05 | 2.89e-05 | 3.37e-05 | 3.89e-05 | 4.4e-05 | 5.03e-05 | 5.66e-05 | 6.44e-05
in isopropanol | 2.44e-05 | 2.89e-05 | 3.43e-05 | 4.03e-05 | 4.73e-05 | 5.4e-05 | 6.16e-05 | 7.07e-05 | 7.92e-05 | 9.02e-05
in water | 4.99e-07 | 5.98e-07 | 7.1e-07 | 8.34e-07 | 9.77e-07 | 1.12e-06 | 1.27e-06 | 1.44e-06 | 1.64e-06 | 1.85e-06
